Where two headings read alike, the source gives them in different places.

In assay [1] the target is T1, human recombinant ETA receptors (Homo sapiens, UniProt P25101).
T1 construct: expressed in transfected cells; host or cells: CHO cells (microsomal membranes)
T1 sequence (P25101 21-427): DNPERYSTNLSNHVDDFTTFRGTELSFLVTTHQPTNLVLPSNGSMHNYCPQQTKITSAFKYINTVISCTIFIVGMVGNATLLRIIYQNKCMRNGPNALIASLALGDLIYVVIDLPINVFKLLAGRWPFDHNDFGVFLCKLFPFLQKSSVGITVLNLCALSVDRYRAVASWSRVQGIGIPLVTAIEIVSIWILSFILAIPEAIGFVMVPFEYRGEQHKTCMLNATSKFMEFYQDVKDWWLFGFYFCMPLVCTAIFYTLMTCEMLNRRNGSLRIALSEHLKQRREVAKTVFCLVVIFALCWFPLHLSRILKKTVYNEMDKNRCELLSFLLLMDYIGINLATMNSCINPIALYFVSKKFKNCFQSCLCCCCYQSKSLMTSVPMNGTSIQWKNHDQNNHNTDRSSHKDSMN
As to the kind of experiment: Inhibition of [125I]ET-1 binding to membranes from CHO cells carrying human ETA receptors. Conditions: CHO cell membranes, 8 pM [125I]ET-1, 2 h at 20° C. The procedure:
(§1) 1) Inhibition of Endothelin Binding to Membranes from CHO Cells Carrying Human ET Receptors
(§2) For competition binding studies, membranes of CHO cells expressing human recombinant ETA or ETB receptors were used. Microsomal membranes from recombinant CHO cells were prepared and the binding assay made as previously described (Breu V., et al, FEBS Lett 1993; 334:210).
(§3) The assay was performed in 200 uL 50 mM Tris/HCl buffer, pH 7.4, including 25 mM MnCl2, 1 mM EDTA and 0.5% (w/v) BSA in polypropylene microtiter plates. […] After 2 h, the membranes were filtered on filterplates containing GF/C filters (Unifilterplates from Canberra Packard S.A. Zürich, Switzerland). To each well, 50 uL of scintillation cocktail was added (MicroScint 20, Canberra Packard S.A. Zürich, Switzerland) and the filter plates counted in a microplate counter (TopCount, Canberra Packard S.A. Zürich, Switzerland).
(§4) All the test compounds were dissolved, diluted and added in DMSO.

Assay [2] addresses T2, human recombinant ETB receptors (Homo sapiens, UniProt P24530).
T2 construct: expressed in transfected cells; host or cells: CHO cells (microsomal membranes)
T2 sequence (P24530 27-442): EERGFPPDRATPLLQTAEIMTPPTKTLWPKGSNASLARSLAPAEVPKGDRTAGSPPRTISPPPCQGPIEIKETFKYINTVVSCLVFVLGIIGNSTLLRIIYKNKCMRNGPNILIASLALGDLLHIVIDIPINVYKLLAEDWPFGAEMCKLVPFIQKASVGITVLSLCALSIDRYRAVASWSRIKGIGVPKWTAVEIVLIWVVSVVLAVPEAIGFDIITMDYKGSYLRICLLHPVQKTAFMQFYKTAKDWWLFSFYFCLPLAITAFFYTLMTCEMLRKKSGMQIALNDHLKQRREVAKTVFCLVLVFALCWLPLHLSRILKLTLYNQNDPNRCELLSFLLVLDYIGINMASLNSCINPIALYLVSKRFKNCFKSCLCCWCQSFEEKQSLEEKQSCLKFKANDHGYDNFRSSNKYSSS
Description: Inhibition of [125I]ET-1 binding to membranes from CHO cells carrying human ETB receptors. As to the method:
as §1, §2, §3, §4

By IC50 is commonly meant the concentration that gives 50% inhibition. `COc1ccccc1Oc1c(NS(=O)(=O)/C=C/c2ccccc2)nc(-c2cnccn2)nc1OCCOc1ncc(Br)cn1` [Example 182]: the figures for the IC50 in assay [1] and in assay [2] were 16.7 nM and 1400 nM, respectively.

Turning to `O=S(=O)(/C=C/c1ccc(Cl)cc1)Nc1ncnc(OCCOc2ncc(Br)cn2)c1-c1ccc(Cl)cc1` [Example 54], the concentration for half-maximal inhibition (IC50) is 14 nM in assay [1] and 183 nM in assay [2].

Turning to `COc1cnc(OCCOc2nc(-c3ccncc3)nc(NS(=O)(=O)/C=C/c3ccccc3)c2-c2ccc(C)cc2)nc1` [Example 83], the IC50 in assay [1] came out at 27.5 nM; in assay [2], 7590 nM.

Turning to `O=S(=O)(/C=C/c1ccccc1)Nc1ncnc(OCCOc2ncc(C(F)(F)F)cn2)c1-c1ccccc1` [Example 95], the figures for the IC50 in assay [1] and in assay [2] were 33 nM and 8390 nM, respectively.

`Cc1ccc(/C=C/S(=O)(=O)Nc2ncnc(OCCOc3ncc(Br)cn3)c2-c2ccc(C)cc2)cc1` [Example 23]: the values for the half-maximal inhibitory concentration (IC50) in assay [1] and in assay [2] were 8.2 nM and 270 nM, respectively.

With `Cc1ccc(-c2c(NS(=O)(=O)/C=C/c3cccc(C)c3)ncnc2OCCOc2ncc(Br)cn2)cc1` [Example 41], the half-inhibitory concentration (IC50) is 5.4 nM in assay [1] and 1780 nM in assay [2].

For `Cc1ccc(-c2c(NS(=O)(=O)/C=C/c3cccs3)nc(-c3ncccn3)nc2OCCOc2ncc(Cl)cn2)cc1` [Example 73], the IC50 turned out to be 7.6 nM in assay [1] and 4760 nM in assay [2].

`Cc1ccc(-c2c(NS(=O)(=O)/C=C/c3cccs3)nc(-c3ncccn3)nc2OCCOc2ncc(Br)cn2)cc1` [Example 145]: the half-inhibitory concentration (IC50) in assay [1] was 9.1 nM; in assay [2] (CHO cell membranes, 8 pM [125I]ET-1, 2 h at 20° C.), 2380 nM.

As to `COc1ccccc1Oc1c(NS(=O)(=O)/C(C)=C/c2ccccc2)nc(-c2ccncc2)nc1OCCOc1ncc(Cl)cn1` [Example 176], the IC50 turned out to be 4.1 nM in assay [1] and 1080 nM in assay [2].

As to `COc1ccccc1Oc1c(NS(=O)(=O)/C(C)=C/c2ccccc2)nc(-c2ccncc2)nc1OCCOc1ncc(Br)cn1` [Example 175], the half-maximal inhibitory concentration (IC50) amounted to 4.7 nM in assay [1] and 499 nM in assay [2].

On to `COc1ccccc1Oc1c(NS(=O)(=O)/C=C/c2ccsc2)nc(-c2ccncc2)nc1OCCOc1ncc(Br)cn1` [Example 178], for which the values for the IC50 in assay [1] and in assay [2] were 5 nM and 671 nM, respectively.

As to `Cc1ccc(-c2c(NS(=O)(=O)/C=C/c3ccccc3)ncnc2OCCOc2ncccn2)cc1` [Example 2, 2-phenyl-ethenesulfonic acid {6-[2-(pyrimidin-2-yloxy)-ethoxy]-5-p-tolyl-pyrimidin-4-yl}-amide], the half-maximal inhibitory concentration (IC50) stood at 25.4 nM in assay [1] and 1830 nM in assay [2].

With `COc1ccccc1Oc1c(NS(=O)(=O)/C=C/c2ccsc2)nc(-c2ccncc2)nc1OCCOc1ncccn1` [Example 180], the results for the IC50 in assay [1] and in assay [2] were 7.4 nM and 1030 nM, respectively.

For `COc1ccc(Cl)c(Oc2c(NS(=O)(=O)/C=C/c3ccccc3)ncnc2OCCOc2ncc(Br)cn2)c1` [Example 225], the IC50 in assay [1] was 5.2 nM; in assay [2], 830 nM.

Regarding `COc1ccc(-c2c(NS(=O)(=O)/C=C/c3ccccc3)ncnc2OCCOc2ncc(Cl)cn2)cc1` [Example 120], the IC50 was found to be 38.7 nM in assay [1] and 1630 nM in assay [2].

As to `Cc1ccc(-c2c(NS(=O)(=O)/C=C/c3ccccc3)ncnc2OCCOc2nc3ccccc3o2)cc1` [Example 16], the IC50 was found to be 62.2 nM in assay [1] and 1130 nM in assay [2].

Turning to `COc1cnc(OCCOc2nc(C)nc(NS(=O)(=O)/C=C/c3ccccc3)c2-c2ccc(C)cc2)nc1` [Example 139], the IC50 was found to be 9.8 nM in assay [1] and 1690 nM in assay [2].

For the compound `C/C(=C\c1ccccc1)S(=O)(=O)Nc1ncnc(OCCOc2ncc(Br)cn2)c1-c1ccc(Cl)cc1` [Example 62], the results for the 50% inhibitory concentration (IC50) in assay [1] and in assay [2] were 58 nM and 4900 nM, respectively.

As to `COc1cnc(OCCOc2ncnc(NS(=O)(=O)/C=C/c3cccc(C)c3)c2-c2ccc(Cl)cc2)nc1` [Example 53], the IC50 in assay [1] amounted to 21 nM; in assay [2], 1360 nM.

Consider `COc1ccc(Cl)c(Oc2c(NS(=O)(=O)/C=C/c3ccccc3)nc(-c3ccncc3)nc2OCCOc2ncc(Br)cn2)c1` [Example 228], for which the IC50 in assay [1] was 14.5 nM; in assay [2], 3910 nM.

With `COc1ccc(-c2c(NS(=O)(=O)/C=C/c3ccccc3)ncnc2OCCOc2ncc(OC)cn2)cc1` [Example 119], the IC50 was found to be 55 nM in assay [1] and 735 nM in assay [2].

Consider `O=S(=O)(/C=C/c1ccccc1)Nc1ncnc(OCCOc2ncc(Cl)cn2)c1-c1ccc(Br)cc1` [Example 87], for which the concentration for half-maximal inhibition (IC50) in assay [1] was 3.9 nM; in assay [2], 439 nM.

As for `CS(=O)(=O)c1nc(NS(=O)(=O)/C=C/c2ccccc2)c(-c2ccccc2)c(OCCOc2ncc(Br)cn2)n1` [Example 107], the half-maximal inhibitory concentration (IC50) in assay [1] was determined as 8.5 nM; in assay [2] it was 4640 nM.

Take `COc1ccccc1Oc1c(NS(=O)(=O)/C=C/c2ccsc2)nc(-c2ccncc2)nc1OCCOc1ncc(Cl)cn1` [Example 181]: the half-maximal inhibitory concentration (IC50) was 7.1 nM in assay [1] and 1980 nM in assay [2].

As to `O=S(=O)(/C=C/c1ccccc1)Nc1nc(-c2ccncc2)nc(OCCOc2ncc(Br)cn2)c1-c1ccc(Cl)cc1` [Example 65], the half-maximal inhibitory concentration (IC50) was 17 nM in assay [1] and 2520 nM in assay [2].

With `Cc1ccc(-c2c(NS(=O)(=O)/C=C/c3ccccc3)nc(C)nc2OCCOc2ncc(Br)cn2)cc1` [Example 138], the IC50 in assay [1] turned out to be 4.4 nM; in assay [2], 1340 nM.

On to `C/C(=C\c1ccccc1)S(=O)(=O)Nc1ncnc(OCCOc2ncc(Br)cn2)c1-c1ccc(C)cc1` [Example 30], for which the results for the IC50 in assay [1] and in assay [2] were 41.8 nM and 9070 nM, respectively.

Regarding `Cc1ccc(-c2c(NS(=O)(=O)/C=C/c3ccccc3)nc(N3CCOCC3)nc2OCCOc2ncc(Br)cn2)cc1` [Example 127], the IC50 came to 14.2 nM in assay [1] and 2750 nM in assay [2].

Take `COc1ccccc1Oc1c(NS(=O)(=O)/C=C/c2ccccc2)nc(N2CCOCC2)nc1OCCOc1ncc(C(F)(F)F)cn1` [Example 198]: the IC50 in assay [1] was 7.9 nM; in assay [2], 595 nM.

Take `Cc1ccc(-c2c(NS(=O)(=O)/C=C/c3ccccc3)nc(-c3cnccn3)nc2OCCOc2ncc(Br)cn2)cc1` [Example 125]: the IC50 in assay [1] worked out at 6.7 nM; in assay [2], 2700 nM.

In the case of `CCc1ccc(-c2c(NS(=O)(=O)/C=C/c3ccccc3)ncnc2OCCOc2ncc(Br)cn2)cc1` [Example 36], the IC50 in assay [1] was 20 nM; in assay [2], 3390 nM.

Turning to `O=S(=O)(/C=C/c1cccs1)Nc1ncnc(OCCOc2ncc(Cl)cn2)c1-c1ccc(Br)cc1` [Example 89], the 50% inhibitory concentration (IC50) came to 4.6 nM in assay [1] and 1220 nM in assay [2].

As to `COc1ccc(-c2c(NS(=O)(=O)/C=C/c3ccccc3)ncnc2OCCOc2ccc(Br)cn2)cc1` [Example 124], the half-inhibitory concentration (IC50) in assay [1] came out at 33.2 nM; in assay [2] it was 309 nM.

Regarding `COc1cnc(OCCOc2nc(N3CCOCC3)nc(NS(=O)(=O)/C=C/c3ccccc3)c2Oc2ccccc2OC)nc1` [Example 197], the results for the IC50 in assay [1] and in assay [2] were 5 nM and 220 nM, respectively.

Consider `COc1cnc(OCCOc2ncnc(NS(=O)(=O)/C=C/c3ccccc3)c2-c2ccc(Br)cc2)nc1` [Example 86], for which the IC50 in assay [1] came out at 4.6 nM; in assay [2], 193 nM.

In the case of `COc1cnc(OCCOc2ncnc(NS(=O)(=O)/C=C/c3ccccc3)c2-c2ccc(C)cc2)nc1` [Example 21], the figures for the IC50 in assay [1] and in assay [2] were 14.7 nM and 749 nM, respectively.

For the compound `COc1cnc(OCCOc2nc(-c3cnccn3)nc(NS(=O)(=O)/C=C/c3ccccc3)c2-c2ccc(C)cc2)nc1` [Example 126], the IC50 in assay [1] turned out to be 9 nM; in assay [2], 3640 nM.

With `Cc1ccc(-c2c(NS(=O)(=O)/C=C/c3cccs3)ncnc2OCCOc2ccc(C(F)(F)F)cn2)cc1` [Example 70], the IC50 in assay [1] turned out to be 16 nM; in assay [2], 258 nM.

Consider `COc1ccccc1Oc1c(NS(=O)(=O)/C=C/c2ccccc2)nc(-c2ccncc2)nc1OCCOc1ncc(Br)cn1` [Example 159], for which the IC50 in assay [1] was found to be 7.3 nM; in assay [2], 2280 nM.

Turning to `CSc1nc(NS(=O)(=O)/C=C/c2ccccc2)c(-c2ccccc2)c(OCCOc2ncc(Br)cn2)n1` [Example 101], the IC50 in assay [1] was found to be 30.7 nM; in assay [2], 8680 nM.

For `Cc1ccc(-c2c(NS(=O)(=O)/C=C/c3cccs3)ncnc2OCCOc2ncc(Cl)cn2)cc1` [Example 69], the 50% inhibitory concentration (IC50) in assay [1] amounted to 6 nM; in assay [2], 1650 nM.

The values above are taken from patent publication US6951856B2, “Arylethene-sulfonamides” (Actelion Pharmaceuticals Ltd., priority 2000, dated 2005).
